Here are results for three molecules from paper PMC11433870, “Neurotoxicity, Neuroprotection, In Vitro MAOA/MAOB Inhibitory Activity Assessment, Molecular Docking, and Permeability Assay Studies of Newly Synthesized Hydrazones Containing a Pyrrole Ring” (Molecules, 2024).

Molecules are shown by their SMILES. Values joined by “and” are separate entries in the source; they are usually repeats but may differ in a detail not shown here. Equal entries are not always repeated. Where only a bound is given, the exact number is not on record here.

Series [1] relates to isolated rat brain synaptosomes. Nature of the series: Neurotoxicity: synaptosomal viability (MTT), substances applied alone. The class given is cell-based. To be noted: 50 µM applied alone, 1 h, compared to control (untreated synaptosomes). How it is done: (§1) Synaptosomes and mitochondria were obtained by multiple, subcellular fractionation using a Percoll gradient. The necessary brain homogenate was prepared and centrifuged at 1000× g for 5 min at +4 °C. After centrifugation, the supernatants were collected and centrifuged again at 1000× g for 5 min at +4 °C. The supernatants from the two centrifugations were mixed and distributed into four tubes. The tubes were centrifuged at 10,000× g for 20 min at +4 °C three times. The last two centrifugations were for purification of synaptosomes and mitochondria.
(§2) The isolation of the required fractions was based on the formation of a colloidal solution of silicon (Percoll), as per the procedure, including: 1. Preparation of a 90% stock solution of Percoll, followed by preparation of two Percoll solutions of different percentages: 16% and 10%. An amount of 4 mL of each of the prepared 16% and 10% Percoll solutions was placed in six test tubes. A 90% Percoll (7.5% Percoll) was added to the precipitate obtained from the previous step from the last centrifugation. The obtained mixtures in all 12 tubes were centrifuged for 20 min at 15,000× g +4 °C. After centrifugation, three layers are formed in the tubes. The bottom layer contains mitochondria, the top layer contains lipids, and the middle layer—at the 16% to 10% Percoll limit—contains synaptosomes. The respective layer from each tube is removed through a glass pasteurizer and collected into one. Buffer B + glucose is added to it. The mixture was centrifuged at 10,000× g for 20 min at +4 °C. Thus, the isolation buffer is exchanged with the incubation buffer. After centrifugation, the pellet where the synaptosomes are mixed and made up with buffer B + glucose.
(§3) Synaptosomes and mitochondria were incubated with the test substances at a concentration of 50 µM for 1 h.
After 1 h incubation with the substances and toxic agent, synaptosomes were centrifuged on a microcentrifuge for 1 min at 15,000× g. The pellet was mixed gently with buffer B + glucose, and the supernatant where 6-OHDA was discarded to prevent oxidation of MTT. Centrifuge again at 15,000× g for 1 min. After the second wash, buffer B + glucose was added to the pellet. To the ‘washed’ synaptosomes, 60 µL of MTT solution is added. The plates were incubated with the MTT solution at 37 °C for 10 min. After incubation, the samples were centrifuged at 15,000× g for 2 min. The excess liquid was removed, and a DMSO solution was used to dissolve the formed formazan crystals. After dissolution, the amount of formazan is measured spectrophotometrically at λ = 580 nm.

For series [2] the test system is unchanged. The experiment in a line: Neurotoxicity: reduced glutathione (GSH) level in synaptosomes, substances applied alone. The class given is cell-based. The note with it: 50 µM applied alone, 1 h, compared to control. Here is the method:
as §1, §2, §3
(§4) After precipitation of the proteins with trichloroacetic acid, the thiol groups in the supernatant were determined by DTNB, which produced a yellow-colored compound that absorbs light at λ = 412 nm. After incubation, synaptosomes were centrifuged at 4000× g for 3 min. The supernatant was removed and the pellet taken for GSH determination. It was treated with 5% trichloroacetic acid, then left for 10 min on ice. It was centrifuged at 8000× g for 10 min (2 °C). The supernatant is taken for GSH determination and frozen at −20 °C. Immediately before measurement, the samples are neutralized with 5N NaOH [58].

In series [3] the test system is isolated rat brain mitochondria. Nature of the series: Neurotoxicity: MDA production in brain mitochondria, substances applied alone. The class given is cell-based. The note with it: 50 µM applied alone, compared to control. How it is done: as §1, §2, §3
To the mitochondria was added 0.3 mL of 0.2% thiobarbituric acid and 0.25 mL of sulfuric acid (0.05 M), and the mixture was boiled for 30 min. After boiling, the tubes were placed on ice, and 0.4 mL of n-butanol was added to each, then centrifuged at 3500× g for 10 min. The amount of MDA was determined spectrophotometrically at 532 nm.

The test system is the same in series [4]. Nature of the series: Neurotoxicity: GSH level in brain mitochondria, substances applied alone. The note with it: 50 µM applied alone, compared to control. In kind it is cell-based. How it is done: as §1, §2
[…]. After centrifugation of the homogenate at 6000× g, a 0.04% solution of DTNB was added to the supernatant to give a yellow color, the determination being spectrophotometric at 412 nm.

For series [5], the system named is isolated rat brain microsomes. Nature of the series: Neurotoxicity: MDA production in brain microsomes, substances applied alone. The class given is cell-based. To be noted: 50 µM applied alone, compared to control. Here is the method:
(§5) The brain was homogenized in 9 volume parts of 0.1 M Tris buffer containing: 0.1 mM dithiothreitol, 0.1 mM phenylmethylsulfonyl fluoride, 0.2 mM EDTA, 1.15% KCl, and 20% (v/v) glycerol (pH 7.4). The resulting homogenate was centrifuged twice at 17,000× g for 30 min. The supernatants from the two centrifugations were pooled and centrifuged twice at 100,000× g for 1 h. The pellet was frozen in 0.1 M Tris buffer.
(§6) After completion of incubation of the microsomes with the substances and toxic agent, the reaction was stopped by the addition of 0.5 mL of 20% trichloroacetic acid, followed by 0.5 mL of 0.67% thiobarbituric acid. The ongoing reactions are associated with the formation of a colored complex between the malondialdehyde formed and thiobarbituric acid. The determination of MDA was spectrophotometric at 535 nm. A molar extinction coefficient of […] was used for the calculation.

Series [6] has as its system isolated rat brain synaptosomes. Nature of the series: 6-OHDA-induced neurotoxicity model: GSH level. The note with it: 50 µM in combination with 6-OHDA (150 µM), compared to the toxic agent. In kind it is cell-based. How it is done:
as §1, §2, §3
Synaptosomes were incubated with 6-OHDA (150 μM) for 1 h.
as §4

Series [7] deals with isolated rat brain microsomes. Nature of the series: Fe2+/AA-induced non-enzyme lipid peroxidation model: MDA production. The class given is cell-based. The note with it: 50 µM in combination with Fe2+/AA, compared to the toxic agent. How it is done: as §5
Non-enzyme-induced lipid peroxidation was induced with 20 μM ferrous sulfate solution and 0.5 mM ascorbic acid solution [62].
as §6

Series [8] concerns the target T1, human recombinant MAOA enzyme (hMAOA) (Homo sapiens, UniProt P21397).
T1 sequence (P21397 1-527): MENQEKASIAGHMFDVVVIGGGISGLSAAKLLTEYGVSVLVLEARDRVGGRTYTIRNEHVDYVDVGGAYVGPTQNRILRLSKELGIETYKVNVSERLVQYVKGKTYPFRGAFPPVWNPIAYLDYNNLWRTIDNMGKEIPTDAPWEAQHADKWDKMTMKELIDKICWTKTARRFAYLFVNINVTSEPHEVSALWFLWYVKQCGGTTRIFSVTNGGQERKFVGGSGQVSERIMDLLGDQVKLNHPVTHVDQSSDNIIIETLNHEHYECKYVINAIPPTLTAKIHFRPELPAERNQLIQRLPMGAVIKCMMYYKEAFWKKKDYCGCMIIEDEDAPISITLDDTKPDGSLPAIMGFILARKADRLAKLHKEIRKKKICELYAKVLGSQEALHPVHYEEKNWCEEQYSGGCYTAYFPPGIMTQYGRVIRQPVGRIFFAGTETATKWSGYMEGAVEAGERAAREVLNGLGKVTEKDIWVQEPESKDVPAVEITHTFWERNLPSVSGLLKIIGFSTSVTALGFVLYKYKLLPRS
The experiment in a line: Human recombinant MAOA enzyme activity (fluorometric, Amplex Red). To be noted: read-out: IC50 (EC50), (µM ± SD) hMAOA. In kind it is biochemical.
Protocol: (§7) The activity of recombinant human MAOA/B was determined fluorometrically. Tyramine hydrochloride was used as substrate. The activity is determined by detection of H2O2 production. This production is in turn reported by binding to horseradish peroxidase using N-acetyl-3,7-dihydroxyphenoxazine (AmplexRed, Thermo Fisher Scientific, Waltham, MA, USA) [63].
(§8) Working solutions of the test substances, reagents, and human recombinant MAOA/B enzyme (hMAOA/B) were prepared in reaction buffer according to the manufacturer’s instructions. A pure working solution of MAOA/B in reaction buffer, a working solution of MAOA/B containing hydrogen peroxide, and a pure reaction buffer were used as controls. Substances were applied at a final concentration of 1 µM. The substances together with hMAOB were placed in a 96-well plate (8 samples for each substance), and then the plate was placed in an incubator for 30 min (in the dark, at 37 °C). Fluorimetric readings were performed in a Synergy 2 Microplate Reader at two wavelengths (570 nm and 690 nm).

In series [9] the target is T2, human recombinant MAOB enzyme (hMAOB) (Homo sapiens, UniProt P27338).
T2 sequence (P27338 1-520): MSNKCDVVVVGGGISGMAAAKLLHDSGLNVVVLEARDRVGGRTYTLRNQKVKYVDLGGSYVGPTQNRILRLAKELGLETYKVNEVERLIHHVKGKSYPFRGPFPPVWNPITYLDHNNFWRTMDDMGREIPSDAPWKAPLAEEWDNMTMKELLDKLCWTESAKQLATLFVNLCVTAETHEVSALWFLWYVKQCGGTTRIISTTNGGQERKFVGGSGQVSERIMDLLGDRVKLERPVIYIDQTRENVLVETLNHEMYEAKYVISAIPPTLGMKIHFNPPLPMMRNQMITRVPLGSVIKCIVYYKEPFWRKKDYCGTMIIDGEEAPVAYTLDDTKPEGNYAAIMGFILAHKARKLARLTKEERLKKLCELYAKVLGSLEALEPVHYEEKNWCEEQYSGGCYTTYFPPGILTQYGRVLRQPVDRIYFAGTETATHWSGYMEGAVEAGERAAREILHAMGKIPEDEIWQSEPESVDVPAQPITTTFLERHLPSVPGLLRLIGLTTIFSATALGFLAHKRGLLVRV
The experiment in a line: Human recombinant MAOB enzyme activity (fluorometric, Amplex Red).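 For all read-outs here: tyramine as substrate, H2O2 formation detected by horseradish peroxidase coupled Amplex Red fluorescence read at 570 and 690 nm, compounds incubated with enzyme 30 min at 37 °C.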 To be noted: for inhibition at 1 µM: compared to control (pure hMAOB); for IC50: read-out: IC50 (EC50), (µM ± SD) hMAOB. The class given is biochemical.
Protocol: as §7, §8

For series [10] the following is noted: pH 7.4, 50 µM, 4 h, 25 °C; Pe calculated in 10^−6 cm/s, presented as −logPe.
The test system of series [11] is isolated rat brain mitochondria. Nature of the series: t-BuOOH-induced oxidative stress model: GSH level. To be noted: 50 µM in combination with t-BuOOH (75 µM), compared to the toxic agent.
The test system is the same in series [12]. Nature of the series: t-BuOOH-induced oxidative stress model: MDA production. To be noted: 50 µM in combination with t-BuOOH (75 µM), compared to the toxic agent.

Usually IC50 stands for the midpoint of a concentration-inhibition curve. In general, inhibition refers to the relative decrease from the control value, in per cent. Regarding `CCOC(=O)c1cc(-c2ccc(Br)cc2)n(CCC(=O)NN=Cc2ccc([N+](=O)[O-])cc2)c1C` [8c], in series [1], the “decrease of synaptosomal viability” value amounted to 30%. Besides, the “decrease of glutathione (GSH) level” value in series [2] is given as 25%. Also, the “increase of MDA production” value in series [3] amounted to 66%; in [5], 60%. Moreover, the “decrease of GSH level” value in [4] was 25%. Besides, the figures for the “preservation of GSH level” value in [6] and in series [11] were 50% and 40%, respectively. Further, the “decrease of MDA production” value in series [7] turned out to be 27%. For the same molecule, the figures for the IC50 in series [8] and in [9] were > 100 µM and 0.814 ± 0.2 µM, respectively. For the same molecule, the “SI: hMAOB selectivity index = IC50(hMAOA)/IC50(hMAOB)” value in [9] is on record as >123. In addition, the inhibition at 1 µM in series [9] amounted to 20%. Moreover, the “PAMPA BBB −logPe” value in series [10] is listed as 4.631 ± 0.047. Besides, the “reduction of MDA production” value in series [12] is 5%.
Take `CCOC(=O)c1cc(-c2ccc(Br)cc2)n(CCC(=O)NN=Cc2cc(OC)c(O)c(OC)c2)c1C` [8d]: in [1], the “decrease of synaptosomal viability” value is recorded as 20%. Moreover, the “decrease of glutathione (GSH) level” value in [2] is 15%. For the same molecule, the “increase of MDA production” value in series [3] was 40%; in series [5] it was 30%. For the same molecule, in series [4], the “decrease of GSH level” value is recorded as 15%. The figures for the “preservation of GSH level” value in series [6] and in series [11] were 70% and 80%, respectively. In [7], the “decrease of MDA production” value turned out to be 54%. Further, the concentration for half-maximal inhibition (IC50) in series [8] is > 100 µM; in series [9], 0.49 ± 0.09 µM. The “SI: hMAOB selectivity index = IC50(hMAOA)/IC50(hMAOB)” value in series [9] is listed as >204. Further, the inhibition at 1 µM in series [9] was 45%. For the same molecule, in [10], the “PAMPA BBB −logPe” value was 4.464 ± 0.026 and 4.464. Moreover, in series [12], the “reduction of MDA production” value is reported as 38%.
With `CCOC(=O)c1cc(-c2ccc(Br)cc2)n(CCC(=O)NN=Cc2ccc(OC)cc2OC)c1C` [8e], the “decrease of synaptosomal viability” value in series [1] is recorded as 35%. For the same molecule, in series [2], the “decrease of glutathione (GSH) level” value amounted to 20%. For the same molecule, the “increase of MDA production” value is listed as 69% in series [3] and 63% in [5]. Further, in series [4], the “decrease of GSH level” value was found to be 25%. Also, the figures for the “preservation of GSH level” value in series [6] and in series [11] were 50% and 60%, respectively. For the same molecule, in series [7], the “decrease of MDA production” value is 25%. The IC50 in series [8] is > 100 µM; in series [9] it was 0.817 ± 0.09 µM. Moreover, the “SI: hMAOB selectivity index = IC50(hMAOA)/IC50(hMAOB)” value in series [9] is given as >122. For the same molecule, the inhibition at 1 µM in series [9] was found to be 20%. For the same molecule, the “PAMPA BBB −logPe” value in [10] was 5.714 and 5.714 ± 0.041. In addition, the “reduction of MDA production” value in [12] came to 11%.
